Results published in ChEMBL document CHEMBL1150619, “Minor steroidal alkaloids from the marine sponge Corticium sp” (J Nat Prod, 2002).
≈ marks a conversion by molar mass, not a printed value.

Tests used:
[1] = Cytotoxicity against mouse RAW264 cells assessed as cell viability after 24 hrs by MTT assay; format: functional, cell-based
C6 = test: Cytotoxicity against rat C6 cells assessed as cell viability after 24 hrs by MTT assay; format: functional, cell-based; conditions: C6, 24 h
[2] = Mus musculus, RAW264.7, 24 h, read-out: IC50

In the case of `CC1=C(/C=C/[C@@H](C)[C@H]2CC[C@H]3C4=CC[C@H]5[C@H](O)[C@H](N)CC[C@]5(C)[C@H]4CC[C@]23C)CCN(C)C1` [4ALPHA-HYDROXYDEMETHYLPLAKINAMINE B], the IC50 [1, 2] is reported as 16.2 µg/mL (≈ 35.8 µM) and the IC50 (C6) is reported as 26.1 µg/mL (≈ 57.7 µM).

With `CC(C)C1=CC(=O)N/C1=C\[C@@H](C)[C@H]1CC[C@H]2C3=CC[C@H]4C[C@H](N)CC[C@]4(C)[C@H]3CC[C@]12C` [PLAKINAMINE G] the IC50 ([1]; raw264) was “Not Active” and the IC50 (C6) was 6.8 µg/mL (≈ 15.6 µM).

Work on `CC1=C(/C=C/[C@@H](C)[C@H]2CC[C@H]3C4=CC[C@H]5C(=O)[C@@H](N(C)C)CC[C@]5(C)[C@H]4CC[C@]23C)CCNC1` [PLAKINAMINE H] yielded an IC50 [1, 2] of 61 µg/mL (≈ 131 µM) and an IC50 (C6) of 9 µg/mL (≈ 19.4 µM).

In the case of `CC(C)C1CCNC1C[C@@H](C)[C@H]1CC[C@H]2C3=CC[C@H]4C[C@H](N)CC[C@]4(C)[C@H]3CC[C@]12C` (stereo partly drawn) [TETRAHYDROPLAKINAMINE A], the IC50 ([1]; raw264) is reported as “Not Active” and the IC50 (C6) is reported as 1.4 µg/mL (≈ 3.28 µM).
